Reference: ChEMBL document CHEMBL6114943, “Engineered Cyclotide Blocks Neuronal Excitotoxicity” (J Med Chem, 2025)
*1 amine or outer side, *2 acyl side, *3 side chain or, on linkers, in order; H or OH if unused. Where a SMILES comes first, the peptide text is derived from it. Bridges are numbered along the chain shown (N, C = ends). X2 = CC(C)C[C@H](C(=O)[C@H](CCCCNC(=O)c1ccc(-c2c3ccc(=[N+](C)C)cc-3oc3cc(N(C)C)ccc23)c(C(=O)[O-])c1)N[*:2])C(=O)[*:1]

Assays:
[1] = Stability in C57BL/6 mouse plasma assessed as drug degradation by measuring parent compound remaining at 100 uM measured after 5 hrs in presence of alteplase by HPLC analysis; assay type: ADME, cell-free; conditions: read-out: Stability
[2] = Stability in C57BL/6 mouse plasma assessed as drug degradation at 100 uM measured after 5 hrs in presence of alteplase by HPLC analysis; assay type: ADME, cell-free
[3] = Stability in C57BL/6 mouse plasma assessed as drug degradation by measuring parent compound remaining at 100 uM measured after 5 hrs by HPLC analysis; assay type: ADME, cell-free; conditions: read-out: Stability
[4] = Stability in C57BL/6 mouse plasma assessed as parent compound remaining at 100 uM measured after 24 hrs in presence of alteplase by HPLC analysis; assay type: ADME, cell-free; conditions: read-out: Stability
[5] = Stability in C57BL/6 mouse plasma assessed as parent compound remaining at 100 uM measured after 24 hrs by HPLC analysis; assay type: ADME, cell-free; conditions: read-out: Stability
[6] = Drug uptake in mouse Primary neuron at 500 nM incubated for 60 mins by inverted confocal microscopic analysis relative to control; assay type: ADME, cell-based; conditions: 1 h, 0.5 µM
[7] = Drug uptake in mouse Primary neuron at 100 nM incubated for 60 mins by inverted confocal microscopic analysis relative to control; assay type: ADME, cell-based; conditions: 1 h, 0.1 µM

remaining at 5 h, 100 µM [1]: 93% | Stability [2]: Unstable | remaining at 5 h, 100 µM [3]: 93% | remaining at 24 h, 100 µM [4]: 90% | remaining at 24 h, 100 µM [5]: 90% | Drug uptake [6]: 85.7% | Drug uptake [7]: 75.9%
Compound: CC[C@H](C)[C@@H]1NC(=O)[C@@H]2CSSC[C@@H]3NC(=O)[C@H](C(C)C)NC(=O)[C@H](CC(=O)O)NC(=O)[C@H](CO)NC(=O)[C@H](CCC(=O)O)NC(=O)[C@H]([C@@H](C)CC)NC(=O)[C@H](CO)NC(=O)[C@H](CO)NC(=O)[C@H](CC(C)C)C(=O)[C@H](CCCCNC(=O)c4ccc(-c5c6ccc(=[N+](C)C)cc-6oc6cc(N(C)C)ccc56)c(C(=O)[O-])c4)NC(=O)[C@@H]4CSSC[C@H](NC(=O)[C@H](CC(=O)O)NC(=O)[C@H](CO)NC(=O)[C@H](CC(=O)O)NC(=O)[C@H](CCCNC(=N)N)NC(=O)[C@H](CCCNC(=N)N)NC(=O)[C@H](CSSC[C@H](NC1=O)C(=O)N[C@@H](CCCNC(=N)N)C(=O)NCC(=O)N[C@@H](CC(N)=O)C(=O)NCC(=O)N[C@@H](Cc1ccc(O)cc1)C(=O)N4)NC(=O)[C@H](CCCNC(=N)N)NC(=O)[C@H](CCCNC(=N)N)NC(=O)[C@H](CCCNC(=N)N)NC(=O)[C@H](CCCNC(=N)N)NC(=O)[C@H](CC(C)C)NC(=O)[C@H]([C@@H](C)CC)NC(=O)[C@H](CCCNC(=N)N)NC(=O)[C@@H]1CCCN1C3=O)C(=O)N1CCC[C@H]1C(=O)NCC(=O)N[C@@H](C)C(=O)N2 (SSIESDVCPRILRRRRCRRDSDCPGACICRGNGYC; disulfide 8-27, 17-29, 23-35; linker N-C via X2)
